pIC50: −log10 of the molar value.
Tests used:
Type in all cases: biochemical
PDK-1 = molecular target: T1, PDK-1 (Homo sapiens, UniProt O15530); assay: PDK-1 enzyme inhibition (PDKtide, Kinase glo)
T1 construct: purchased Upstate
T1 sequence (O15530 1-556): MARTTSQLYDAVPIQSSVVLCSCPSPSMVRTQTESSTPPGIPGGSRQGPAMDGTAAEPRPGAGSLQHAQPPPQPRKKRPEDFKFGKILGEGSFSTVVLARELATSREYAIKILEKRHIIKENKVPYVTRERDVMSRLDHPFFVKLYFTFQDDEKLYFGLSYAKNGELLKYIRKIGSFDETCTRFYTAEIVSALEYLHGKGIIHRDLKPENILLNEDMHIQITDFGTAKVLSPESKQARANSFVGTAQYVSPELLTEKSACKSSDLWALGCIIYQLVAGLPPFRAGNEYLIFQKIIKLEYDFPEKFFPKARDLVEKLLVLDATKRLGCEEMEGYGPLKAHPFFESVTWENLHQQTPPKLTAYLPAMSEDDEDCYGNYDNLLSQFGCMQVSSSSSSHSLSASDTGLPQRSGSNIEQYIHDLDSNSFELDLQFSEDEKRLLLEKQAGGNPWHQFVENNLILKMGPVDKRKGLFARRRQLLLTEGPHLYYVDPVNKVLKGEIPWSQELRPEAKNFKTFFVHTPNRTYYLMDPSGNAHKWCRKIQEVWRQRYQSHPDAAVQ
Experimental: (§1) A test solution was prepared by dissolving one of the compounds of the Examples in DMSO at a concentration of 12.5 mM. Enzyme reaction was conducted in a buffer solution containing 20 mM of HEPES (pH 7.5), 5 mM MgCl2, 0.5 mM ethylene glycol bis(b-aminoethylether) tetraacetic acid (EGTA), 200 mM of KCl, 1 mM of DTT and 0.05% triton X-100. 100 μM of Kemptide peptide (Upstate) and 1 μM of ATP were added to the buffer solution as substrates. Recombinant aurora kinase (Upstate) was added the resulting mixture at a concentration of 10 nM and reaction was carried out at 30° C. for 1 hour. 25 μl of the resulting solution was mixed with 25 μl of Kinase glo (promega), thereby inducing the second reaction by luciferase. The amount of remained ATP was measured by fusion a-FP (Packard, USA). Inhibitory capacities of the test compounds for the enzyme activity were assessed according to the same method as in GSK-3β analysis, and IC50 value was calculated.
The procedure of aurora kinase A analysis was repeated to assess inhibitory capacities of the test compounds for the enzyme activity, except for using a buffer solution containing 50 mM of tris-HCl (pH 7.5), 10 mM of MgCl2, 1 mM of EGTA and 1 mM of […]; 2.5 μM of PDKtide (peptide, Upstate) (Upstate); and 31.5 nM of recombinant PDK1 (Upstate).

ERK-1 = molecular target: T2, ERK-1 (Homo sapiens, UniProt P27361); assay: ERK-1 enzyme inhibition (MBP, 32P-ATP); conditions: ERK-1, 100 μM ATP
T2 construct: purchased Upstate
Experimental: (§2) The test solution prepared above by dissolving a test compound in DMSO was added to the reaction solution in an amount of less than 5% based on the total reaction solution to analyze the capacity for enzyme inhibitory activity. The cpm value obtained when the test compounds was present relative to the cpm value in the absence of the test compound was represented by percentage, and IC50 (μM) was determined as the concentration of the test compound required to inhibit the enzyme activity by 50% relatively to the control solution.
(§3) The compounds prepared in the Examples were dissolved in dimethylsulfoxide (DMSO) at a concentration of 12.5 mM to prepare test compounds and enzyme reaction was conducted in a buffer solution containing 50 mM of tris-HCl (pH 7.5), 10 mM of MgCl2, 1 mM of EGTA, 1 mM of EDTA and 1 mM of DTT. 0.33 mg/ml of MBP (Upstate), 100 μM of ATP and 0.25 μCi of ^32P-ATP were added to the buffer solution as substrates. 5 nM of recombinant Erk-1 (Upstate) was added the resulting mixture, and the mixture was reacted at 30° C. for 1 hour. The reaction was terminated by adding 5 μl of 5% phosphoric acid solution to 25 μl of the reaction mixture. 15 μl of the resulting solution was dropped on whatman p81 filter paper, which was then washed in 0.5% phosphoric acid solution for 10 mins. After repeating the washing 3 times, the filter paper was dried and cpm thereof was measured by a liquid scintillation counter (Packard, USA). Inhibitory capacities of the test compounds for the enzyme activity were assessed according to the same method as in GSK-3β analysis, and IC50 value was calculated.

CDK-2/cycline A = molecular target: T3, CDK-2/cycline A (Homo sapiens, UniProt P24941); assay: CDK-2 enzyme inhibition (histone H1, 32P-ATP)
T3 construct: purchased Upstate
Experimental: as §3, with “0.33” for “The compounds prepared in the Examples were dissolved in dimethylsulfoxide (DMSO) at a concentration of 12.5 mM to prepare test compounds and enzyme reaction was conducted in a buffer solution containing 50 mM of tris-HCl (pH 7.5), 10 mM of MgCl2, 1 mM of EGTA, 1 mM of EDTA and 1 mM of DTT. 0.33”
The procedure of ERK-1 analysis was repeated to assess inhibitory capacities of the test compounds for the enzyme activity, except for using 2.5 μg of histone H1 (Upstate) and 100 nM of recombinant CDK-2/cycline A (Upstate).

KDR = molecular target: T4, KDR (Homo sapiens, UniProt P35968); assay: KDR enzyme inhibition (Biotin-polyE4Y, alphascreen); conditions: 0.1 μM ATP
T4 construct: purchased Upstate
Experimental: as §2
The compounds prepared in the Examples were dissolved in dimethylsulfoxide (DMSO) at a concentration of 12.5 mM to prepare test solution, and enzyme reaction was conducted in a buffer solution containing 50 mM tris-HCl (pH 7.5), 5 mM MgCl2, 1 mM MnCl2, 0.01% tween-20 and 2 mM of DTT. 1 nM of Biotin-polyE4Y (Packard) and 0.1 μM of ATP were added to the buffer solution as substrates. 2 nM of recombinant KDR (Upstate) was added the resulting mixture and reaction was carried out at 30° C. for 1 hour. 10 μl of a diluted solution prepared by diluting alphascreen phosphotyrosine (T-Tyr-100, Packard) beads with a solution containing 6.25 mM of HEPES (pH 7.4), 250 mM of NaCl, 100 Mm EDTA, and 0.25% BSA was added to 15 μl of the KDR reaction solution. After a reaction at a room temperature for 1 hour, alphascreen signal was measured by a fusion a-FP (Packard). Inhibitory capacities of the test compounds for the enzyme activity were assessed according to the same method as in GSK-3β analysis, and IC50 value was calculated.

JNK-1 = molecular target: T5, JNK-1 (Homo sapiens, UniProt P45983); assay: JNK-1 enzyme inhibition (GST-ATF2, 32P-ATP)
T5 construct: purchased Upstate

[1] = molecular target: T6, p38 Mitogen-activated protein kinase (MAPK) (Homo sapiens, UniProt Q16539); assay: p38 MAPK enzyme inhibition (histone H1, 32P-ATP); conditions: p38 MAPK (recombinant p38a)
T6 construct: purchased Upstate

Aurora Kinase A = molecular target: T7, Aurora Kinase A (Homo sapiens, UniProt O14965); assay: Aurora kinase A enzyme inhibition (Kemptide, Kinase glo); conditions: 1 μM ATP
T7 construct: purchased Upstate
T7 sequence (O14965 1-403): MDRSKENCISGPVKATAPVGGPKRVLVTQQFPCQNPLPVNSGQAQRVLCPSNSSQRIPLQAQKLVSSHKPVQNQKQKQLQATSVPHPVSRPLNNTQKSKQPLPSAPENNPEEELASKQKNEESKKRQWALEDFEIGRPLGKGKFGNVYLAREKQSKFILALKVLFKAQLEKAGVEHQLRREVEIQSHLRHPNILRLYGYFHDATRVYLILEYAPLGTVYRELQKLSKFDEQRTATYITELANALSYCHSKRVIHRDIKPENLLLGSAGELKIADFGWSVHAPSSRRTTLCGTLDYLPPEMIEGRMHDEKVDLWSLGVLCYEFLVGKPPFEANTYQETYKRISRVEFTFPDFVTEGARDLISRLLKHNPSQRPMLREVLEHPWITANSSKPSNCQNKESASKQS
Experimental: as §2, §1

human GSK-3β = human GSK-3β (Homo sapiens, UniProt P49841); assay: GSK-3β enzyme inhibition (32P-ATP, phospho-CREB peptide, filter paper); conditions: 100 μM ATP, 30° C., 1 hour
Experimental: GSK-3β was prepared by a gene recombination method.
First, primers corresponding to 5′-end and 3′-end of polynucleotide encoding human GSK-3β were designed and synthesized from nucleotide sequence of human GSK-3β (GenBank Reg. No. L33801). Then, the primers were amplified by PCR (polymerase chain reaction) in which a human DNA sequence was employed as a template and treated with restriction enzyme BamH1/XhoI. The resulting gene fragments were inserted into the corresponding identical restriction sites of pGex vector (GE Healthcare Life Science) to prepare an expression vector for transformation of E. coli BL21 (DE3) strain (Invitrogen). The transformed E. coli strain was inoculated to LB medium (1% Bacto tryptone, 0.5% yeast extract, 1% sodium chloride) and cultured until the optical density of the bacterial cells was about 0.5 at 600 nm and 37° C. Then, IPTG (isopropyl-β-D-thiogalactoside) was added thereto to a final concentration to 0.5 mM at 18° C. 16 hours after IPTG addition, the cells were subjected to centrifugation at 10,000×g for 10 mins and cell precipitates were collected. The cell precipitates were suspended in a buffer solution (30 mM tris-HCl (pH 7.5), 100 mM NaCl, 5% glycerol, 2 mM DTT) and the cells were smashed in an ice bath using a Sonic Dismembrator (Fisher, USA). The resulting solution was centrifuged at 16,000 rpm for 30 mins.
The supernatant obtained above was introduced to a pre-equilibrated GST column (Pharmacia, USA) and eluted by 5 mM glutachione. The effuent was subjected to SDS-PAGE and GSK-3β protein was collected. GST protein was cutt using thrombin. The GSK-3β protein thus obtained was diluted with a buffer solution (20 mM HEPES (pH 7.5), 5% glycerol, 2 mM DTT) until the concentration of NaCl reached 50 mM. The diluted solution was introduced to Mono S column (Pharmacia, USA) equilibrated with the above buffer solution and eluted with a aqueous NaCl while changing the concentration from 0 to 1 M NaCl, and GSK-3β protein was collected by a electrophoresis. The purified protein was used in the analysis for the activity for enzyme activity.
The enzyme reaction was conducted in a buffer solution (50 mM of tris-HCl (pH 7.5), 10 mM of MgCl2, 1 mM of EGTA, 1 mM of EDTA and 1 mM of DTT). 100 μM of phosho-CREB peptide (NEB, USA), 100 μM of ATP and 1 μCi of ^32P-ATP were added to the buffer solution as substrates. And then 100 nM of recombinant GSK-3β was added thereto and the mixture was reacted at 30° C. for 1 hour. The reaction was terminated by the addition of 5 μl of 5% phosphoric acid solution to 25 μl of the reaction mixture. The resulting solution was subjected to centrifugation at 15,000 for 10 mins and 20 μl of the supernatant thus obtained was dropped on whatman p81 filter paper. The filter paper was washed in 0.5% phosphoric acid solution for 10 mins. After repeating the washing 3 times, the filter paper was dried and its cpm (counter per mins) was assessed.
The test solution prepared above by dissolving a test compound in DMSO was added to the reaction solution in an amount of less than 5% based on the total reaction solution to analyze the capacity for enzyme inhibitory activity.

T4 sequence (P35968 20-1356, species assumed): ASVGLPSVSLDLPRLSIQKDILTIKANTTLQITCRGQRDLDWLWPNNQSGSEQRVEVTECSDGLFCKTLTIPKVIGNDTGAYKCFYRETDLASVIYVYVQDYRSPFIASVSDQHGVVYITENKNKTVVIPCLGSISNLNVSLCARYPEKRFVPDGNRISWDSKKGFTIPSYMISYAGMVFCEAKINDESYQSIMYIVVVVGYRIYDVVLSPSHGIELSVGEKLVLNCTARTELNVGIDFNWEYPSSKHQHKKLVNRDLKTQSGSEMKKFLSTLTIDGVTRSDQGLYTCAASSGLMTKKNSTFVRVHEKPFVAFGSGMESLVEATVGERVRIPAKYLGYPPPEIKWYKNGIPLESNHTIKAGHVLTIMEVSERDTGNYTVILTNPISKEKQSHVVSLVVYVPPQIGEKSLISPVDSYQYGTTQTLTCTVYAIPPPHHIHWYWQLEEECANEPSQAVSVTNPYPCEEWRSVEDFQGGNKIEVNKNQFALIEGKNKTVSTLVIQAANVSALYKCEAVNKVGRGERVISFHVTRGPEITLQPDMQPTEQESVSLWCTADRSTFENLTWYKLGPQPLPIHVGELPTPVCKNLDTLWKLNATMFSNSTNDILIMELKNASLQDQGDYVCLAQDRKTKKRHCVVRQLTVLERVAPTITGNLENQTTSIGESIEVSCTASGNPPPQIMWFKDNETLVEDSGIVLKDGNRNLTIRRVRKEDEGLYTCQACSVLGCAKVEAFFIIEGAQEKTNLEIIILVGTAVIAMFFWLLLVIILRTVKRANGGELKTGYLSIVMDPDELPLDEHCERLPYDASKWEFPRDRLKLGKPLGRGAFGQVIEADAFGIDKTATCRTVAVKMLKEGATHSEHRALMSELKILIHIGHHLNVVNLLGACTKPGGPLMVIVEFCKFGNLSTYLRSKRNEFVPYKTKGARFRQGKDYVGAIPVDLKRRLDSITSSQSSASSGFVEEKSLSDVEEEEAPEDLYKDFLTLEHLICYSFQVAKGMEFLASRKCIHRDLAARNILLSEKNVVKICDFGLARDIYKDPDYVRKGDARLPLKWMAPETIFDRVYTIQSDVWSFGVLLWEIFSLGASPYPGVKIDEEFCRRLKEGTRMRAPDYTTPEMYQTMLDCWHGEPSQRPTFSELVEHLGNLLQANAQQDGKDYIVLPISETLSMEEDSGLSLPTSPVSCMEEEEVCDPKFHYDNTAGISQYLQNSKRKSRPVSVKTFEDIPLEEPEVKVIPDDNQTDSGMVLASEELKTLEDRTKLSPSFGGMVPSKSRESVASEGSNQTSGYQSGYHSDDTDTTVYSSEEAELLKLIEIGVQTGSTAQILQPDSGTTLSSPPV
T5 sequence (P45983 whole entry, species assumed): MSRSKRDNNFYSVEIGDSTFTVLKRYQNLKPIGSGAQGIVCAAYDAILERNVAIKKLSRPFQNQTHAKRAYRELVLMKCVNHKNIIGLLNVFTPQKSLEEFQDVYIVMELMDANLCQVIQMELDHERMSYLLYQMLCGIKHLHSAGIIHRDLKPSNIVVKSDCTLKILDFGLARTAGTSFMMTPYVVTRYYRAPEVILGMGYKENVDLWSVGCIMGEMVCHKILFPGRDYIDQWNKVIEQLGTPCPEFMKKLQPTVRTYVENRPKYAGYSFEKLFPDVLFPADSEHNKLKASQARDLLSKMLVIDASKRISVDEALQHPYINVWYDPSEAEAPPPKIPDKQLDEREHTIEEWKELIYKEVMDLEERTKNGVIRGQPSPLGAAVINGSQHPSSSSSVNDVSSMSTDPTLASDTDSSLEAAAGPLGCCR
T2 sequence (P27361 whole entry, species assumed): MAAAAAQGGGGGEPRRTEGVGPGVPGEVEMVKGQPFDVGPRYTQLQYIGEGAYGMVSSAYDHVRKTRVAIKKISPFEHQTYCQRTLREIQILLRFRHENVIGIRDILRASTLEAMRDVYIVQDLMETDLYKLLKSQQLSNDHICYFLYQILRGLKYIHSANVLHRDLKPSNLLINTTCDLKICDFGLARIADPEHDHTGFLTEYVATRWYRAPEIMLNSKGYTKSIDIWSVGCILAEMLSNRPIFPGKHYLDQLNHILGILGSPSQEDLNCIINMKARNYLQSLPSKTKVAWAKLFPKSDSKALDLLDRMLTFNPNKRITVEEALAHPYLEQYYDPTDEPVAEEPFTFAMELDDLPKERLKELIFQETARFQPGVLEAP
T6 sequence (Q16539 whole entry): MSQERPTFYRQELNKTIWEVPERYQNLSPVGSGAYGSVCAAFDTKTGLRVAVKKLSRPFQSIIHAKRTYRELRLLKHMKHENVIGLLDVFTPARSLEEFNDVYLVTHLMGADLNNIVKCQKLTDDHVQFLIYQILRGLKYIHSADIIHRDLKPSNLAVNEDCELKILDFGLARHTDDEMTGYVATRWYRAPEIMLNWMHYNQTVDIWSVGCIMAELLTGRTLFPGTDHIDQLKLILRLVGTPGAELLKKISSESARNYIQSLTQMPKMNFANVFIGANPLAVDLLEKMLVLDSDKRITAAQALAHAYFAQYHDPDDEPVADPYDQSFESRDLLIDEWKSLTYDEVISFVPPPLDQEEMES
Chain of human GSK-3β (P49841 whole entry): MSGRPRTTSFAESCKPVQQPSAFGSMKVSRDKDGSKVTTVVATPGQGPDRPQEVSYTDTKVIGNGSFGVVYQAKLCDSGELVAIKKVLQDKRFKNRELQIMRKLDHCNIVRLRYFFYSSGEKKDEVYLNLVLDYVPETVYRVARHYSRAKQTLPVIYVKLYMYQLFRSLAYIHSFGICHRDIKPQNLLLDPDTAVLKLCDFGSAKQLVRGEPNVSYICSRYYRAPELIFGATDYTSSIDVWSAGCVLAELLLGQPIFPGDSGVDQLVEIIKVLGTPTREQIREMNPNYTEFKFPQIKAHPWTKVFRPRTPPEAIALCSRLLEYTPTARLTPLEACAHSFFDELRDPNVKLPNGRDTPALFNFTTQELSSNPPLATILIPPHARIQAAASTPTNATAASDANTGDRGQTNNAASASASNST

| pIC50 (PDK-1) | pIC50 (ERK-1) | pIC50 (CDK-2/cycline A) | pIC50 (KDR) | pIC50 (JNK-1) | pIC50 [1] | pIC50 (Aurora Kinase A) | pIC50 (human GSK-3β) | Compound |
| --- | --- | --- | --- | --- | --- | --- | --- | --- |
| 4.55 | 4.78 |  |  |  |  |  |  | Cc1ccncc1NC(=O)c1ccnc2[nH]c(-c3ccc(F)cc3)nc12 [Example 241, 2-(4-fluoro-phenyl)-3H-imidazo[4,5-b]pyridine-7-carboxylic acid(4-methyl-pyridin-3-yl)-amide] |
|  |  | 6.44 | 5.78 | 4.98 | 5.49 |  |  | Cc1ccncc1NC(=O)c1ccnc2[nH]c(-c3cccc(F)c3)nc12 [Example 451, 2-(3-fluoro-phenyl)-3H-imidazo[4,5-b]pyridine-7-carboxylic acid(4-methyl-pyridin-3-yl)-amide] |
| 5.51 |  | 6.52 | 6.77 |  |  | 6.70 |  | Cc1ccncc1NC(=O)c1ccnc2[nH]c(-c3ccc(NCCCCN(C)C)cc3)nc12 [Example 343, 2-[4-(4-dimethylamino-butylamino)-phenyl]-3H-imidazo[4,5-b]pyridine-7-carboxylic acid(4-methyl-pyridin-3-yl)-amide] |
|  | 4.59 | 6.77 | 6.54 | 4.84 | 4.30 |  | 8.30 | CCSc1ccncc1NC(=O)c1ccnc2[nH]c(-c3ccc(F)cc3)nc12 [Example 320, 2-(4-fluoro-phenyl)-3H-imidazo[4,5-b]pyridine-7-carboxylic acid(4-ethylsulfanyl-pyridin-3-yl)-amide] |

Reference: patent publication US20090170847A1, “Imidazopyridine Derivatives Inhibiting Protein Kinase Activity, Method for the Preparation Thereof and Pharmaceutical Composition Containing Same” (priority 2006, published 2009)
